Test [1] has as its system human thrombin. The test can be described thus: thrombin inhibition curves. As to conditions: FIG. 3; comparison with alpha1-AT(Arg358). It is filed as biochemical.
Test [2] deals with human plasma kallikrein. The test can be described thus: antikallikrein activity, residual hydrolysis of chromozyme PK at 410 nm. The format is biochemical. As for the experimental part:
The antikallikrein activity is assessed by measuring at 410 nm the residual extent of hydrolysis of chromosyme PK (benzoyl-Pro-Pre-Arg-4-nitroanilide acetate, Boehringer Mannheim).
2.6 pmol of human plasma kallikrein are preincubated at 37° C. with an increasing amount of inhibitor in 0.1 M Na phosphate/0.15 M NaCl buffer. After 30 minutes, the reaction is stopped by adding […] of substrate (final concentration 0.5 mM) and the residual enzyme activity is determined.

The test system of test [3] is human neutrophil elastase. Put plainly: inhibition of human neutrophil elastase by E. coli extracts. The format is biochemical. As to conditions: clarified sonicated E. coli extracts; FIG. 1; compared with normal (Met358)alpha1-AT. The protocol:
Clarified sonicated extracts were prepared from induced cultures of E. coli TGE900 containing one of the above three plasmids.
Aliquots of extracts are tested for their capacity to inhibit human neutrophil elastase (this technique having already been described).

In test [4] the test system is human thrombin. As to conditions: general statement on the earlier variant; cited from earlier work.
The subject of test [5] is kallikrein. Conditions: ratio versus C1 inhibitor; cited from earlier work.
Test [6] deals with factor XIIF. Conditions: ratio versus C1 inhibitor; cited from earlier work.

Entries after “also recorded” stand apart in the source; their conditions may differ.

With “(Ala^357, Arg^358)alpha1 -AT: variant of human alpha1-antitrypsin, Pro357 replaced by Ala and Met358 by Arg, expressed in E. coli from plasmid pTG1946”, the inhibition of thrombin result in test [1] was “very weak; also recorded: only very weakly”. The inhibition of kallikrein result in test [2] (2.6 pmol kallikrein, 37° C., 30 minutes preincubation, FIG. 2) is on record as “very much improved”; in test [2] (2.6 pmol kallikrein, 37° C., 30 minutes preincubation; FIG. 2; Arg^358) alpha1 -AT), “capable of rapidly inhibiting”. Further, the “inhibition of neutrophil elastase” value in test [3] is recorded as “incapable of inhibiting”.
“(Arg^358)alpha1 -AT: human alpha1-antitrypsin variant with Met358 replaced by arginine, described in WO 86/00,337; plasmid pTG1900”: the antithrombin activity result in test [4] is “very substantial”. Moreover, the “activity in inactivation of kallikrein relative to C1 inhibitor” value in test [5] is given as 4.1 times. Further, the “activity in inactivation of factor XIIF relative to C1 inhibitor” value in test [6] is 11.5 times.

The values above are taken from US4973668A, “Variants of alpha 1-antitrypsin which are useful, in particular, as kallikrein inhibitors” (Transgene S.A., priority 1986, dated 1990).
